In paper PMC7433010, “Exploration of multi‐target effects of 3‐benzoyl‐5‐hydroxychromen‐2‐one in Alzheimer’s disease cell and mouse models” (Aging Cell, 2020):

Experiments:
BAX = assay: Western blot of BAX in ∆K280 TauRD‐DsRed SH‐SY5Y cells; assay type: cell-based, human; details: induced untreated 120%, uninduced 100%
Protocol: (§1) Total proteins from ∆K280 TauRD-DsRed SH-SY5Y cells were obtained using a RIPA buffer containing 50 mM Tris-HCl (pH8.0), 150 mM NaCl, 2 mM EDTA (pH8.0), 50 mM NaF, 0.1% SDS, 0.5% sodium deoxycholate, 1% NP40, and a protease inhibitor cocktail (Sigma-Aldrich). After sonication and sitting on ice for 20 min, the lysates were centrifuged at 14,000 × g for 30 min at 4°C. Protein concentrations were determined using a protein assay kit (Bio-Rad, Hercules, CA, USA), with albumin as a standard. Total proteins (20 µg) were electrophoresed on 10% or 12% SDS-polyacrylamide gel and transferred onto polyvinylidene difluoride (PVDF) membranes (Sigma-Aldrich) through reverse electrophoresis. […] Subsequently, immune complexes were detected using a horseradish peroxidase-conjugated goat anti-mouse or goat anti-rabbit IgG antibody (1:5000; GeneTex, Irvive, CA, USA) and a chemiluminescent substrate (Millipore).

[1] = system: STZ‐induced hyperglycemic 3 × Tg‐AD mice; assay: Open‐field test in STZ‐treated 3 × Tg‐AD mice; assay type: in vivo, mouse; details: day 24; 40 mg/kg i.p.
Protocol: (§2) Mice harboring APPSwe, PS1M146V, and […] transgenes (3×Tg-AD) (Oddo et al., 2003) were purchased from the Jackson Laboratory (004807; Bar Harbor, ME, USA). Six-month-old male homozygous 3×Tg-AD mice were group housed at 20–25°C and 60% relative humidity under a daily 12-h light/12-h dark cycle, with assess to food and water ad libitum. Mice were randomly divided into 3 groups: – streptozocin (STZ), STZ, and STZ/LM-031 (n = 10 per group). STZ-induced hyperglycemia was used to accelerate the development of AD phenotype (Chen et al., 2014). Briefly, the mice were fasted for 12 h each day prior to intraperitoneal (i.p.) injection of STZ ([…]; Sigma-Aldrich) or vehicle (0.1 M sodium citrate pH4.5) for 4 times (days 2, 3, 9, and 10) (Chen et al., 2019). Mouse body weight was measured and blood glucose level was measured on days 1, 8, 15, 22, and 29 using a blood glucose meter (Bioland Technology, Taipei, Taiwan). LM-031 (40 mg/kg) or vehicle (DMSO:Cremophor EL:0.9% saline = 1:2:7) was intraperitoneally injected every day for 22 days from days 15 to 36. All animal procedures were ethically approved by the Institutional Animal Care and Use Committee of National Taiwan Normal University, Taipei, Taiwan (Permit Number: 103002) and were conducted in compliance with the ARRIVE (Animal Research: Reporting In Vivo Experiments) guidelines. […]

CREB = assay: Western blot of CREB in hippocampus of STZ‐treated 3 × Tg‐AD mice; assay type: in vivo, mouse; details: among the three groups
Protocol: (§3) In addition, isolated hippocampal and cortex tissues from transgenic mice (as described in Animal studies) were homogenized and extracted proteins (10 µg) were separated and blotted. After being blocked, the membranes were probed with antibody against mouse NRF2 (1:500; Sigma-Aldrich), CREB (1:500; Millipore), pCREB (S133) (1:1000; Millipore), or GAPDH (1:1000; MDBio), and the immune complexes detected as described above.
as §2, with “Taiwan).” for “Taiwan). LM-031 (40 mg/kg) or vehicle (DMSO:Cremophor EL:0.9% saline = 1:2:7) was intraperitoneally injected every day for 22 days from days 15 to 36. All animal procedures were ethically approved by the Institutional Animal Care and Use Committee of National Taiwan Normal University, Taipei, Taiwan (Permit Number: 103002) and were conducted in compliance with the ARRIVE (Animal Research: Reporting In Vivo Experiments) guidelines.”

pCREB = assay: Western blot of pCREB in hippocampus of STZ‐treated 3 × Tg‐AD mice; assay type: in vivo, mouse; details: STZ 68%, – STZ 100%
Protocol: as §3
as §2, with “Taiwan).” for “Taiwan). LM-031 (40 mg/kg) or vehicle (DMSO:Cremophor EL:0.9% saline = 1:2:7) was intraperitoneally injected every day for 22 days from days 15 to 36. All animal procedures were ethically approved by the Institutional Animal Care and Use Committee of National Taiwan Normal University, Taipei, Taiwan (Permit Number: 103002) and were conducted in compliance with the ARRIVE (Animal Research: Reporting In Vivo Experiments) guidelines.”

[2] = system: STZ‐induced hyperglycemic 3 × Tg‐AD mice; assay: Y‐maze task in STZ‐treated 3 × Tg‐AD mice; assay type: in vivo, mouse; details: day 26; 40 mg/kg i.p.; STZ 53%, – STZ 63%
Protocol: Mice harboring APPSwe, PS1M146V, and […] transgenes (3×Tg-AD) (Oddo et al., 2003) were purchased from the Jackson Laboratory (004807; Bar Harbor, ME, USA). Six-month-old male homozygous 3×Tg-AD mice were group housed at 20–25°C and 60% relative humidity under a daily 12-h light/12-h dark cycle, with assess to food and water ad libitum. Mice were randomly divided into 3 groups: – streptozocin (STZ), STZ, and STZ/LM-031 (n = 10 per group). STZ-induced hyperglycemia was used to accelerate the development of AD phenotype (Chen et al., 2014). […] Mouse body weight was measured and blood glucose level was measured on days 1, 8, 15, 22, and 29 using a blood glucose meter (Bioland Technology, Taipei, Taiwan). […]
A Y-maze composed of three equally spaced arms (40 cm long, 30 cm high, and 15 cm wide) was used to assess spontaneous alternation behavior. On day 26, each mouse was placed in one of the arm compartments and was allowed to move freely for 8 min; the number of entries and the sequence of arms entered were recorded. Spatial working memory was assessed through the spontaneous alternation performances of a Y-maze exploration as described (Maurice et al., 1994). […] The percent of spontaneous alternation behavior was calculated as the ratio of actual alternation to possible alternations (total arm entries – 2) × 100.

pAKT (S473) = assay: Western blot of pAKT (S473) in ∆K280 TauRD‐DsRed SH‐SY5Y cells; assay type: cell-based, human; details: induced untreated 84%, uninduced 100%
Protocol: as §1
(§4) Figure S4. ΔK280 TauRD-DsRed SH-SY5Y cells. […] On day 9, neurite outgrowth and caspase 3 activity were measured. In addition, expression of HSPB1, NRF2, and CREB pathways were assessed. (b) Relative AKT, pAKT, ERK, and pERK protein levels analyzed through immunoblotting. […]

ERK1/2 = assay: Western blot of ERK1/2 in ∆K280 TauRD‐DsRed SH‐SY5Y cells; assay type: cell-based, human
Protocol: as §1, §4

BDNF = assay: Western blot of BDNF in ∆K280 TauRD‐DsRed SH‐SY5Y cells; assay type: cell-based, human; details: 1 µM, uninduced 100%
Protocol: as §1

pERK1/2 (T202/Y204) = assay: Western blot of pERK1/2 (T202/Y204) in ∆K280 TauRD‐DsRed SH‐SY5Y cells; assay type: cell-based, human; details: induced untreated 90%, uninduced 100%
Protocol: as §1, §4

O=C(c1ccccc1)c1cc2c(O)cccc2oc1=O [LM‐031, 3‐benzoyl‐5‐hydroxychromen‐2‐one]
BAX expression (BAX): 76% | open‐field distance traveled and inactive time [1]: No significant change | relative total CREB level in hippocampus (CREB): not significantly different | pCREB level in hippocampus (pCREB): 110% | Y‐maze alternation rate [2]: 72% | pAKT (S473) expression level (pAKT (S473)): 113% | ERK1/2 level (ERK1/2): not notably affected | BDNF protein level, 14 kDa (BDNF; induced untreated 82%): 155% | BDNF protein level, 32 kDa (BDNF; induced untreated 83%): 101% | pERK1/2 (T202/Y204) expression level (pERK1/2 (T202/Y204)): 117%
